Measurements published in patent publication US11339161B2, “Triazolo pyridines as modulators of gamma-secretase” (Boehringer Ingelheim International GmbH, priority 2017, dated 2022).

What was measured:
[1] = tested on: Aβ42 production; assay: Inhibition of Aβ42 production in H4 neuroglioma cells stably expressing human APP695 (MSD electrochemiluminescence); assay type: cell-based; conditions: H4 neuroglioma cells expressing human APP695, 22 hours incubation; Table 4a
Method: (§1) Cells were plated out to near confluency. The compounds to be tested were received as 10 mM stocks in 100% DMSO. A dilution series was initially generated in 100% DMSO and then diluted 200-fold in cell culture media such that the tested concentration range was 30 μM to 0.1 nM and the final DMSO concentration was 0.5%. The diluted compounds were incubated with the cells for 22 hours in an incubator at 37° C. and 5% CO2. Aβ42 levels were measured post-incubation from the supernatant of the cells using an Aβ42 specific electrochemiluminescence assay provided by Meso Scale Discovery (Catalog #L21CA-1). The measurement of Aβ42 levels were performed according to the manufacturer's protocol.

[2] = tested on: Aβ total; assay: Aβ total levels in H4 neuroglioma cells stably expressing human APP695 (MSD electrochemiluminescence); assay type: cell-based; conditions: selectivity ratio vs. Aβtotal, Table 4a
Method: as §1
Aβ total levels were likewise determined using a specific electrochemiluminescence assay provided by Meso Scale Discovery (Catalog #L21ZA-1) according to the manufacturer's protocol.

[3] = target: ABL1 (Homo sapiens, UniProt P00519); conditions: Z'-Lyte substrate Tyr 02, ATP bin 10 μM (ATP Km app 12 μM), read-out: IC50 of known inhibitor (inhibitor validation); cited from earlier work
[4] = target: CSF1R (FMS) (Homo sapiens, UniProt P07333); conditions: substrate Tyr 01, ATP bin 500 μM (ATP Km app 450 μM), read-out: IC50 of known inhibitor (inhibitor validation); cited from earlier work
[5] = target: LYN B (Homo sapiens, UniProt P07948); conditions: substrate Tyr 02, ATP bin 25 μM (ATP Km app 25 μM), read-out: IC50 of known inhibitor (inhibitor validation); cited from earlier work
Sequence of LYN B (P07948 1-491 isoform P07948-2): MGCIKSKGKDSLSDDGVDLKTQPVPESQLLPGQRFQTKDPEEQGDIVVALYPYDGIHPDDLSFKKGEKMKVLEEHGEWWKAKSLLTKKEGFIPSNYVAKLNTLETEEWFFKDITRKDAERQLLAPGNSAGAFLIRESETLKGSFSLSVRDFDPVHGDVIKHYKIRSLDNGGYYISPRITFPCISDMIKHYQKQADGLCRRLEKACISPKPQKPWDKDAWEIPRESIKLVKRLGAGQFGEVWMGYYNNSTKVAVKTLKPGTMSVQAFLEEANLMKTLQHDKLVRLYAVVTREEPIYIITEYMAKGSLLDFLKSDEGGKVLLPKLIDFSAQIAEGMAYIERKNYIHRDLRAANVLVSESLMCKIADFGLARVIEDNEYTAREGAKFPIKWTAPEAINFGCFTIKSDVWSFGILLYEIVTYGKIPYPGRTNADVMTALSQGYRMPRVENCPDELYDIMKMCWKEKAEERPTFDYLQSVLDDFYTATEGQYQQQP

Sequence of ABL1 (P00519 whole entry): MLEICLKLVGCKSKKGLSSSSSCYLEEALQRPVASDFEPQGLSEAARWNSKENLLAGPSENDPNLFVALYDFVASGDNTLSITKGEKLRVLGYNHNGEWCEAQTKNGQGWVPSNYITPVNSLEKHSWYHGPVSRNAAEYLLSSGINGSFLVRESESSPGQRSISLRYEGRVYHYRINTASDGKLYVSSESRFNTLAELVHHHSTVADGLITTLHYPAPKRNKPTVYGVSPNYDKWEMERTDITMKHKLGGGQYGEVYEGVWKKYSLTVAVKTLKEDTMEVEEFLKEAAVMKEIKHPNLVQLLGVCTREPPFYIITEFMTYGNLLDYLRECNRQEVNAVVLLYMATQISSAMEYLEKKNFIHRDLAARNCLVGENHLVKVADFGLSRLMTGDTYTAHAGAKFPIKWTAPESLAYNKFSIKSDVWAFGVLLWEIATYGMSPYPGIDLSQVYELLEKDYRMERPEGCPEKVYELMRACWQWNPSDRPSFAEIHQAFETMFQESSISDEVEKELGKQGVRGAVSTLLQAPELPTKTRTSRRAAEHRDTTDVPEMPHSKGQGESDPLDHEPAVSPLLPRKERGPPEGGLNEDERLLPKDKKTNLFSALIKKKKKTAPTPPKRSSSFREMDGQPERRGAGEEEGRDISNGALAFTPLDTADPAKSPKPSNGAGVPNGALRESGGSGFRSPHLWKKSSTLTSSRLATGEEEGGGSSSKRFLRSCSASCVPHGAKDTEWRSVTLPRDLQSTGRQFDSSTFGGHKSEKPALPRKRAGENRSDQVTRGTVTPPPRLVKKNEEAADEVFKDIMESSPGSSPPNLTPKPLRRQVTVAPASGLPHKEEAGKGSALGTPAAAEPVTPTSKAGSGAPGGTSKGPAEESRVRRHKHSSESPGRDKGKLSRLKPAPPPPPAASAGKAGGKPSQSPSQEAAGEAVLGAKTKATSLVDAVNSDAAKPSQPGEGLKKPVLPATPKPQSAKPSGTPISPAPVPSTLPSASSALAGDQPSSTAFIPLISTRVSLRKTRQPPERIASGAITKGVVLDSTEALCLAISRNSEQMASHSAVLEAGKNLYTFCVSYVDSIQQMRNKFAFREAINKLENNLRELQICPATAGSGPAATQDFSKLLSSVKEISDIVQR
Sequence of CSF1R (FMS) (P07333 20-972): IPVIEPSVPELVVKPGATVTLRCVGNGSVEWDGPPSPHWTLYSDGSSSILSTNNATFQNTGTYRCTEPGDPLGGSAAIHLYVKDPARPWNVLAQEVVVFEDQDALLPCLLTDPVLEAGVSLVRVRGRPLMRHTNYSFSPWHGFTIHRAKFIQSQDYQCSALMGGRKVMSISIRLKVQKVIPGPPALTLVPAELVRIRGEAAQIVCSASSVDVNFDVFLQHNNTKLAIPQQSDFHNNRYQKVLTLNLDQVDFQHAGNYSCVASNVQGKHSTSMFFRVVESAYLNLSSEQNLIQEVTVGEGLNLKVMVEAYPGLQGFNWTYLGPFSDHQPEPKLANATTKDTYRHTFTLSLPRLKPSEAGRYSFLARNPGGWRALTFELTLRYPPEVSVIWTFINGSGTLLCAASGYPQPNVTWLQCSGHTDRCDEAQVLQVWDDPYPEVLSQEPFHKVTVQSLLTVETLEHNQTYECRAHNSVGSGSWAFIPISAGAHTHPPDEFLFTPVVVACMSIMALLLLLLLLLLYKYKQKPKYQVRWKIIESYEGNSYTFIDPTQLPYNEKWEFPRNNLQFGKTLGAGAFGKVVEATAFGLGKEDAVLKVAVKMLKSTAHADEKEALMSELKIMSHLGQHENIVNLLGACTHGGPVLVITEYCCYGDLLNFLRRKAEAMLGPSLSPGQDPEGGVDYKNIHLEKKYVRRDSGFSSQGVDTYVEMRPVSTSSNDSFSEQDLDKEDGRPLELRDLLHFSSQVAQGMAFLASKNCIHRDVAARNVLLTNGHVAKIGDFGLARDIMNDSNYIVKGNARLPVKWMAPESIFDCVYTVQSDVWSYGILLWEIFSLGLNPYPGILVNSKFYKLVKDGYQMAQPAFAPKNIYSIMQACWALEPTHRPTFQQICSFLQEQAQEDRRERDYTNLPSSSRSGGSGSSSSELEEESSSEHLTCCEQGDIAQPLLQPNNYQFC

Row | Structure (SMILES) | IC50 [1] [nM] | Ratio AβTotal IC50/Aβ42 IC50 [2] | IC50 [3] [nM] | IC50 [4] [nM] | IC50 [5] [nM]
1 | Cc1cc(F)ccc1-c1cccn2nc(NC3CCc4[nH]ncc4C3)nc12 (stereo not drawn) [Example 41, [8-(4-Fluoro-2-methyl-phenyl)-[1,2,4]triazolo[1,5-a]pyridine-2-yl]-(4,5,6,7-tetrahydro-1H-indazol-5-yl)-amine] | 4570 | 1 |  |  | 
2 | CCc1nnc2n1CCC(Nc1nc3c(-c4ccc(F)cc4C)cccn3n1)C2 (stereo not drawn) [Example 53, (3-Ethyl-5,6,7,8-tetrahydro-[1,2,4]triazolo[4,3-a]pyridine-7-yl)-[8-(4-fluoro-2-methyl-phenyl)-[1,2,4]triazolo[1,5-a]pyridine-2-yl]-amine] | 1390 | 1 |  |  | 
3 | CCn1ncc2c1CCC(Nc1nc3c(-c4ccc(Cl)cc4)cccn3n1)C2 (stereo not drawn) [Example 60, [8-(4-Chloro-phenyl)-[1,2,4]triazolo[1,5-a]pyridine-2-yl]-(1-ethyl-4,5,6,7-tetrahydro-1H-indazol-5-yl)-amine] | 60 | 113 |  |  | 
4 | CCc1nnn2c1CCC(Nc1nc3c(-c4ccc(F)cc4C)cccn3n1)C2 (stereo not drawn) [Example 52, (3-Ethyl-4,5,6,7-tetrahydro-[1,2,3]triazolo[1,5-a]pyridine-6-yl)-[8-(4-fluoro-2-methyl-phenyl)-[1,2,4]triazolo[1,5-a]pyridine-2-yl]-amine] | 740 | 2 |  |  | 
5 | CCn1ncc2c1CCC(Nc1nc3c(-c4ccccc4Cl)cccn3n1)C2 (stereo not drawn) [Example 58, [8-(2-Chloro-phenyl)-[1,2,4]triazolo[1,5-a]pyridine-2-yl]-(1-ethyl-4,5,6,7-tetrahydro-1H-indazol-5-yl)-amine] | 60 | 34 |  |  | 
6 | CCOC1Cc2c(cnn2CC)CC1Nc1nc2c(-c3cc(F)c(F)c(F)c3)cccn2n1 (stereo not drawn) [Example 50, (6-Ethoxy-1-ethyl-4,5,6,7-tetrahydro-1H-indazol-5-yl)-[8-(3,4,5-trifluoro-phenyl)-[1,2,4]triazolo[1,5-a]pyridine-2-yl]-amine] | 21700 | 1 |  |  | 
7 | COc1cc2ncnc(Nc3cccc(Cl)c3)c2cc1OC [Tyrphostin AG1478] |  |  | 421 | 4420 | 242

More lines, main results first:

Row | IC50 [1] [nM] | Structure (SMILES) | Ratio AβTotal IC50/Aβ42 IC50 [2] | IC50 [3] [nM] | IC50 [4] [nM] | IC50 [5] [nM]
8 | 20 | CCn1ncc2c1CCC(Nc1nc3c(-c4ccc(F)c(Cl)c4)cccn3n1)C2 (stereo not drawn) [Example 61, [8-(3-Chloro-4-fluoro-phenyl)-[1,2,4]triazolo[1,5-a]pyridine-2-yl]-(1-ethyl-4,5,6,7-tetrahydro-1H-indazol-5-yl)-amine] | 152 |  |  | 
9 | 30 | CCn1ncc2c1CCC(Nc1nc3c(-c4cc(F)c(F)c(F)c4)cccn3n1)C2 (stereo not drawn) [Example 62, (1-Ethyl-4,5,6,7-tetrahydro-1H-indazol-5-yl)-[8-(3,4,5-trifluoro-phenyl)-[1,2,4]triazolo[1,5-a]pyridine-2-yl]-amine] | 128 |  |  | 
10 | 200 | CCn1ncc2c1CCC(Nc1nc3c(-c4cncc(C)c4)cccn3n1)C2 (stereo not drawn) [Example 66, (1-Ethyl-4,5,6,7-tetrahydro-1H-indazol-5-yl)-[8-(5-methyl-pyridin-3-yl)-[1,2,4]triazolo[1,5-a]pyridine-2-yl]-amine] | 154 |  |  | 
11 | 730 | CCn1ncc2c1CCC(Nc1nc3c(-c4cnccc4C)cccn3n1)C2 (stereo not drawn) [Example 64, (1-Ethyl-4,5,6,7-tetrahydro-1H-indazol-5-yl)-[8-(4-methyl-pyridin-3-yl)-[1,2,4]triazolo[1,5-a]pyridine-2-yl]-amine] | 41 |  |  | 
12 | 680 | CCn1ncc2c1CCC(Nc1nc3c(-c4cccnc4C)cccn3n1)C2 (stereo not drawn) [Example 65, (1-Ethyl-4,5,6,7-tetrahydro-1H-indazol-5-yl)-[8-(2-methyl-pyridin-3-yl)-[1,2,4]triazolo[1,5-a]pyridine-2-yl]-amine] | 44 |  |  | 
13 | 50 | CCn1ncc2c1CCC(Nc1nc3c(-c4ccc(N(C)C)nc4)cccn3n1)C2 (stereo not drawn) [Example 72, [8-(6-Dimethylamino-pyridin-3-yl)-[1,2,4]triazolo[1,5-a]pyridine-2-yl]-(1-ethyl-4,5,6,7-tetrahydro-1H-indazol-5-yl)-amine] | 538 |  |  | 
